Structures are written as SMILES. Where “and” joins values, the source holds several entries; their conditions need not be identical. Equal values may be shown once.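 Where inhibition never reached the appropriate level, the endpoint shown equals the highest concentration tested. Otherwise, values were interpolated linearly from a five-concentration, 48-hour dose response in 96-well plates. The concentration for 50% growth inhibition is given as GI50. TGI marks complete inhibition of growth.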 Some results are limits rather than exact numbers.

Test systems include IGROV1 ovarian; SNB-75 CNS; M14 melanoma; UO-31 renal; HS 578T breast; MCF7 breast; BT-549 breast; UACC-62 melanoma; LOX IMVI melanoma; MALME-3M melanoma.
Common to all, as to assay: growth of human tumour cells (NCI), 48 h

Take `O=c1c2c(c3ccccc3n1-c1ccccc1)NC(=S)NC2c1ccc(Cl)cc1` (stereo not drawn): the GI50 in the assay on IGROV1 ovarian is 4.57 µM; in the assay with SNB-75 CNS, 3.54 µM; in the assay with M14 melanoma, 3.19 µM; in the assay on UO-31 renal, 3.22 µM; in the assay on HS 578T breast, 1.85 µM; with MCF7 breast, 4.75 µM. Besides, the figures for the GI50 with BT-549 breast, in the assay on UACC-62 melanoma and in the assay on LOX IMVI melanoma were 3.73 µM, 1.49 µM and 2.59 µM, respectively. Besides, the TGI in the assay on IGROV1 ovarian is 27.2 µM; with SNB-75 CNS, 22.6 µM; in the assay on M14 melanoma, 16.1 µM; in the assay on UO-31 renal, 42.7 µM; in the assay with HS 578T breast it was greater than 100 µM; in the assay on MCF7 breast it was greater than 100 µM. In addition, the TGI with BT-549 breast worked out at 26 µM; in the assay with UACC-62 melanoma it was 10.6 µM; in the assay with LOX IMVI melanoma, 33.4 µM.
On to `COC(=O)c1ccc2c(c1)C(=O)c1c-2n(C)c(=O)c2cc(OC)c(OC)cc12`, for which the GI50 with MALME-3M melanoma is greater than 50 µM; with IGROV1 ovarian, 11.8 µM; with M14 melanoma, greater than 50 µM; in the assay with UO-31 renal, greater than 50 µM; in the assay on HS 578T breast it was greater than 50 µM; with MCF7 breast, greater than 50 µM. Besides, the GI50 with BT-549 breast, in the assay with UACC-62 melanoma and with LOX IMVI melanoma was greater than 50 µM in each case. For the same compound, the TGI in the assay with MALME-3M melanoma, in the assay with IGROV1 ovarian, in the assay on M14 melanoma, in the assay with UO-31 renal, in the assay with HS 578T breast and with MCF7 breast was greater than 50 µM throughout. The TGI in the assay on BT-549 breast, in the assay with UACC-62 melanoma and in the assay with LOX IMVI melanoma was greater than 50 µM in each case.
For the compound `CCC(CCC(C)C1CCC2C3CC=C4CC(OC5OC(CO)C(O)C(O)C5O)CCC4(C)C3CCC12C)C(C)C` (stereo not drawn), the TGI with MALME-3M melanoma, with IGROV1 ovarian, in the assay on M14 melanoma, with UO-31 renal, in the assay on HS 578T breast and in the assay on MCF7 breast was greater than 100 µM in each case. Besides, the TGI in the assay with BT-549 breast, in the assay on UACC-62 melanoma and in the assay on LOX IMVI melanoma was greater than 100 µM in each case.
Regarding `C[C@]12CC[C@H]3[C@@H](CCC4=CC(=O)CC[C@@]43C)[C@@H]1CC[C@@H]2C(=O)COS(=O)(=O)c1ccc(Br)cc1`, the TGI in the assay with MALME-3M melanoma was found to be 12.7 µM; in the assay on IGROV1 ovarian, 3.28 µM; with SNB-75 CNS, 41.8 µM; in the assay on M14 melanoma it was 23.8 µM; with UO-31 renal it was 3.5 µM; in the assay with HS 578T breast, 73.6 µM. Also, the TGI worked out at 22.5 µM in the assay with MCF7 breast, 50.5 µM in the assay with BT-549 breast and 37.8 µM in the assay on UACC-62 melanoma.
Consider `CNc1cc2nc3cc(NC)c(C)cc3cc2cc1C`, for which the GI50 in the assay with MALME-3M melanoma was 2.7 µM; with IGROV1 ovarian it was 0.562 µM; with SNB-75 CNS it was 3.75 µM; with M14 melanoma, 2.24 µM; with UO-31 renal it was 0.365 µM; in the assay with HS 578T breast it was 1.62 µM. Further, the figures for the GI50 in the assay with BT-549 breast, in the assay on UACC-62 melanoma and with LOX IMVI melanoma were 3.48 µM, 8.82 µM and 0.446 µM, respectively. Moreover, the TGI came to 19.8 µM in the assay with MALME-3M melanoma; 16.2 µM in the assay on IGROV1 ovarian; 19.4 µM with SNB-75 CNS; 14.1 µM in the assay on M14 melanoma; 13.3 µM in the assay on UO-31 renal; 7.6 µM in the assay on HS 578T breast. The TGI worked out at 14.3 µM with BT-549 breast, 34.5 µM with UACC-62 melanoma and 1.79 µM in the assay on LOX IMVI melanoma.
On to `C=C1COC(O)(C2OCOC(C3CC(=O)NC(=O)C3)C2O)C1C` (stereo not drawn), for which the GI50 in the assay on MALME-3M melanoma is 0.00285 µM; with IGROV1 ovarian it was 0.00383 µM and 0.0166 µM; in the assay on SNB-75 CNS, 0.00332 µM; with M14 melanoma, 0.00323 µM; in the assay on UO-31 renal, 0.00204 µM; with HS 578T breast it was 0.00428 µM. In addition, the GI50 in the assay on BT-549 breast was 0.0187 µM; in the assay on UACC-62 melanoma, 0.00275 µM and 0.0134 µM; with LOX IMVI melanoma, 0.00234 µM. The TGI is 0.0154 µM and 0.0364 µM in the assay with MALME-3M melanoma; 0.0442 µM and 0.0773 µM with IGROV1 ovarian; 0.0336 µM and 0.0195 µM with SNB-75 CNS; 0.017 µM and 0.0232 µM with M14 melanoma; 0.0278 µM and 0.0215 µM in the assay on UO-31 renal; 0.0265 µM in the assay on HS 578T breast. Also, the TGI was 0.0739 µM with BT-549 breast; 0.0247 µM and 0.131 µM in the assay on UACC-62 melanoma; 0.00553 µM and 0.0217 µM with LOX IMVI melanoma.
On to `N#Cc1ccsc1NC(=O)COC(=O)c1cccc(S(=O)(=O)N2CCc3ccccc32)c1`, for which the GI50 in the assay with MALME-3M melanoma is 75.8 µM; with IGROV1 ovarian, 7.84 µM; with SNB-75 CNS it was 29.9 µM; in the assay on UO-31 renal it was 41.2 µM; in the assay on HS 578T breast, greater than 100 µM; in the assay with MCF7 breast it was 19.8 µM. The GI50 in the assay on BT-549 breast is 34 µM; in the assay on UACC-62 melanoma, 32 µM; with LOX IMVI melanoma it was 7.69 µM. Also, the TGI in the assay with MALME-3M melanoma, with IGROV1 ovarian, in the assay on SNB-75 CNS, in the assay on UO-31 renal, in the assay with HS 578T breast and in the assay with MCF7 breast was greater than 100 µM in each case. In addition, the TGI in the assay with BT-549 breast, with UACC-62 melanoma and with LOX IMVI melanoma was greater than 100 µM throughout.
`O=C1C=CC(=Nc2ccccc2)c2ccccc21`: the TGI came to 23.2 µM with IGROV1 ovarian; 20 µM in the assay on SNB-75 CNS; 18.6 µM in the assay with M14 melanoma; 23.3 µM with UO-31 renal; 88.6 µM in the assay with HS 578T breast; 21.4 µM in the assay on MCF7 breast. Moreover, the TGI was found to be 28 µM in the assay with BT-549 breast, 12.9 µM in the assay with UACC-62 melanoma and 16.9 µM with LOX IMVI melanoma.
With `O=C(NNc1ccc(F)cc1)C1CCC(CNS(=O)(=O)c2ccc(Cl)c(Cl)c2)CC1` (stereo not drawn), the GI50 in the assay on IGROV1 ovarian was 6.79 µM; with M14 melanoma it was 7.49 µM; in the assay with UO-31 renal it was 16.8 µM; with HS 578T breast, 10.5 µM; in the assay on MCF7 breast, 7.73 µM; in the assay on BT-549 breast it was 19.1 µM. The GI50 is 1.98 µM in the assay with UACC-62 melanoma and 2.08 µM in the assay on LOX IMVI melanoma. Moreover, the TGI is greater than 50 µM in the assay on IGROV1 ovarian; greater than 50 µM with M14 melanoma; greater than 50 µM in the assay with UO-31 renal; 42.4 µM in the assay on HS 578T breast; greater than 50 µM in the assay on MCF7 breast; greater than 50 µM in the assay on BT-549 breast. Also, the TGI amounted to 23.4 µM in the assay with UACC-62 melanoma and 14.4 µM in the assay with LOX IMVI melanoma.
